Experimental data published in patent publication EP2050748A1, “Novel fused pyrimidines” (Bayer Schering Pharma Aktiengesellschaft, priority 2007, dated 2009).

Key:
[1] = system: phosphorylated GSK3 (Ser9); assay: Cellular pGSK3 assay (phospho-GSK3 ELISA); type: cell-based; conditions: Homo sapiens, MCF7 cells, compound incubated 48h
Procedure: In order to study the cellular activity of the compounds according to the present invention, an ELISA-based assay has been established for the phosphorylated protein glycogen synthetase kinase 3 (GSK3). The assay is based on a solid phase sandwich ELISA that detects endogenous levels of phosphorylated GSK3 using a phospho-GSK3 (Ser9) specific antibody (BioSource International, Inc.; Catalog #KHO0461). After incubation with cell lysates, the coated antibody captures the phosphorylated GSK3 protein. Following extensive washing, GSK3 polyclonal antibody is added to detect the captured phospho-GSK3 protein. Secondary antibody (anti-rabbit IgG-HRP) is then used to recognize the bound detection antibody. After the second incubation and washing to remove all the excess anti-rabbit IgG-HRP, a substrate solution is added, which is acted upon by the bound enzyme to produce color. The intensity of this colored product is directly proportional to the concentration of GSK-3β [pS9] present in the original specimen. MCF7 cells (ATCC HTB-22) were seeded into 96 well fate bottom plates at a density of 10000 cells/well. After 24 h 1 µl each of the compound dilutions (test compounds were dissolved as 10 mM solutions in dimethylsulfoxide (DMSO) and subsequently diluted) were added into each well of the 96 well plates and incubated for 48h at 37°C in a humidified athmosphere containing 5% CO2. Cells were harvested and lysed in cell extraction buffer (10 mM Tris, pH 7.4, 100 mM NaCl, 1 mM EDTA, 1 mM EGTA, 1 mM NaF, 20 mM Na4P2O7, 2 mM Na3VO4, 1% Triton X-100, 10vol% glycerol, 0.1vol% SDS, 0.5vol% deoxycholate, 1 mM phenylmethylsulfonylfluorid (PMSF)). The lysate were centrifuged for 10 min. at 4°C and the supernatant were transferred to a new tube. 50 µl of sample diluent (standard diluent buffer, Biosource) were added and 100 µl of cell lysate transferred into the tube and vortexed. 100 µl of each diluted cell lysate were added to the appropriate ELISA well plate and incubated for 3h at room temperature. The plates were washed 4 times with 1x wash buffer (Biosource). 50 µl of detection antibody (GSK3 (Ser9) detection antibody; BioSource) were added to each well and incubated for 30 min. at room temperature. The washing procedure was repeated between each step. 100µl of HRP-linked secondary antibody (anti-mouse IgG HRP-linked antibody) were added to each well and incubated for 30 min. at room temperature. 100µl of TMB substrate (0.05vol% 3,3',5,5' tetramethylbenzidine, 0.1vol% hydrogen peroxide, complex polypeptides in a buffered solution; Biosource) were added to each well and incubated for 30 min. at room temperature. Finally 100 µl of Stop solution (0.05vol% α and β unsaturated carbonyl compound) were added to each well and the plate were shaked gently for a few seconds. The absorbance was measured at λ = 450 nm (Wallac Victor2; Perkin Elmer, USA) within 30 min. after adding the stop solution. The analysis of the data was performed using a statistical program (Excel; Microsoft, USA) and the IC50 of pGSK3 inhibition was determined.

[2] = system: OvCAR3 cells; assay: Cellular proliferation / Cytotoxicity assay (Alamar Blue); type: cell-based; conditions: Homo sapiens, OVCAR-3, 48h incubation, Alamar Blue (Resazurin) cell viability, read-out: Anti-proliferative / Cytotoxic activity (OvCAR3 cells)
Procedure: The anti-proliferative activity of the compounds as described herein, is evaluated using the OvCAR3, HCT116 and A549 cell lines and the Alamar Blue (Resazurin) cell viability assay (O'Brien et al. Eur J Biochem 267, 5421-5426, 2000). Resazurin is reduced to the fluorescent resorufin by cellular dehydrogenase activity, correlating with viable, proliferating cells. Test compounds are dissolved as 10 mM solutions in DMSO and subsequently diluted. Cells like HCT116 or A549 cells were seeded into 96 well flat bottom plates at a density of 10000 cells/well (OvCAR3 cells), 1000 cells/well (HCT116 cells) or 2000 cells/well (A549 cells) in a volume of 200 µl/well. 24 hours after seeding, 1 µl each of the compound dilutions are added into each well of the 96 well plates. Each compound dilution is tested as at least as duplicates. Wells containing untreated control cells were filled with 200 µl DMEM (Dulbecco's Modified Eagle Medium) containing 0.5vol% v:v DMSO. The cells are then incubated with the substances for 48h at 37°C in a humidified atmosphere containing 5vol% CO2. To determine the viability of the cells, 20 µl of a Resazurin solution (90mg / l) are added. After 4h incubation at 37°C, the fluorescence is measured by extinction at ? = 544 nm and an emission of ? = 590 nm (Wallac Victor2; Perkin Elmer, USA). For the calculation of the cell viability, the emission value from untreated cells is set as 100% viability and the fluorescence intensity of treated cells are set in relation to the values of untreated cells. Viabilities are expressed as % values. The corresponding IC50 values of the compounds for cytotoxic activity are determined from the concentration-effect curves by means of non-linear regression. The analysis of the data is performed using a biostatistical program (GraphPad Prism, USA). Representative IC50 values for anti-proliferative / cytotoxic potency determined in the aforementioned assay follow from the following table, in which the numbers of the compound correspond to the numbers of the examples.

Row | SMILES | IC50 [1] [µM] | IC50 [2] [µM]
1 | Clc1cnc2nc(-c3ccc(CN4CCC(c5n[nH]c(-c6ccccn6)n5)CC4)cc3)c(-c3ccccc3)cn12 [Example 12, 3-chloro-6-phenyl-7-(4-{[4-(5-pyridin-2-yl-1,2,4-triazol-3-yl)piperidin-1-yl]methyl}phenyl)imidazo[1,2-a]pyrimidine] | 1 to 10 | < 1
2 | Brc1cnc2nc(-c3ccc(CN4CCC(c5n[nH]c(-c6ccccn6)n5)CC4)cc3)c(-c3ccccc3)cn12 [Example 11, 3-bromo-6-phenyl-7-(4-{[4-(5-pyridin-2-yl-1,2,4-triazol-3-yl)piperidin-1-yl]methyl}phenyl)imidazo[1,2-a]pyrimidine] | < 1 | < 1
3 | c1ccc(-c2cn3nc(C4CC4)nc3nc2-c2ccc(CN3CCC(c4n[nH]c(-c5ccccn5)n4)CC3)cc2)cc1 [Example 4, 2-cyclopropyl-6-phenyl-5-(4-{[4-(5-pyridin-2-yl-1,2,4-triazol-3-yl)piperidin-1-yl]methyl}phenyl)[1,2,4]triazolo[1,5-a]pyrimidine] | 1 to 10 | < 1
4 | Cc1nc2nc(-c3ccc(CN4CCC(c5n[nH]c(-c6ccccn6)n5)CC4)cc3)c(-c3ccccc3)cn2n1 [Example 3, 2-methyl-6-phenyl-5-(4-{[4-(5-pyridin-2-yl-1,2,4-triazol-3-yl)piperidin-1-yl]methyl}phenyl)[1,2,4]triazolo[1,5-a]pyrimidine] | 1 to 10 | < 1
5 | C#Cc1cnc2nc(-c3ccc(CN4CCC(c5n[nH]c(-c6ccccn6)n5)CC4)cc3)c(-c3ccccc3)cn12 [Example 13, 3-ethynyl-6-phenyl-7-(4-{[4-(5-pyridin-2-yl-1,2,4-triazol-3-yl)piperidin-1-yl]methyl}phenyl)imidazo[1,2-a]pyrimidine] | 1 to 10 | < 1
6 | c1ccc(-c2cn3ccnc3nc2-c2ccc(CN3CCC(c4nc(-c5ccccn5)n[nH]4)CC3)cc2)cc1 [Example 1, 6-phenyl-7-(4-{[4-(3-pyridin-2-yl-1,2,4-triazol-5-yl)piperidin-1-yl]methyl}phenyl)imidazo[1,2-a]pyrimidine] | < 1 | > 1
7 | Fc1cnc2nc(-c3ccc(CN4CCC(c5n[nH]c(-c6ccccn6)n5)CC4)cc3)c(-c3ccccc3)cn12 [Example 9, 3-fluoro-6-phenyl-7-(4-{[4-(5-pyridin-2-yl-1H-1,2,4-triazol-3-yl)piperidin-1-yl]methyl}phenyl)imidazo[1,2-a]pyrimidine] | 1 to 10 | < 1
8 | Cc1cnc2nc(-c3ccc(CN4CCC(c5n[nH]c(-c6ccccn6)n5)CC4)cc3)c(-c3ccccc3)cn12 [Example 14, 3-methyl-6-phenyl-7-(4-{[4-(5-pyridin-2-yl-1,2,4-triazol-3-yl)piperidin-1-yl]methyl}phenyl)imidazo[1,2-a]pyrimidine] | 1 to 10 | < 1
9 | c1ccc(-c2cn3ccnc3nc2-c2ccc(CN3CCC(n4cnc(-c5ccccn5)c4)CC3)cc2)cc1 [Example 20, 6-phenyl-7-(4-{[4-(4-pyridin-2-yl-imidazol-1-yl)piperidin-1-yl]methyl}phenyl)imidazo[1,2-a]pyrimidine] | 1 to 10 | > 1
10 | c1ccc(-c2cn3ccnc3nc2-c2ccc(CN3CCC(c4n[nH]c(-c5ccncc5)n4)CC3)cc2)cc1 [Example 6, 6-phenyl-7-(4-{[4-(5-pyridin-4-yl-1,2,4-triazol-3-yl)piperidin-1-yl]methyl}phenyl)imidazo[1,2-a]pyrimidine] | 1 to 10 | > 1
11 | CNc1c(-c2ccccc2)c(-c2ccc(CN3CCC(c4n[nH]c(-c5ccccn5)n4)CC3)cc2)nc2nccn12 [Example 10, N-methyl-6-phenyl-7-(4-{[4-(5-pyridin-2-yl-1,2,4-triazol-3-yl)piperidin-1-yl]methyl}phenyl)imidazo[1,2-a]pyrimidin-5-amine] | < 1 | > 1
12 | c1ccc(-c2cn3ccnc3nc2-c2ccc(CN3CCC(c4cc(-c5ccccn5)n[nH]4)CC3)cc2)cc1 [Example 5, 6-phenyl-7-(4-{[4-(3-pyridin-2-yl-pyrazol-5-yl)piperidin-1-yl]methyl}phenyl)imidazo[1,2-a]pyrimidine] | 1 to 10 | > 1
13 | CCc1cnc2nc(-c3ccc(CN4CCC(c5n[nH]c(-c6ccccn6)n5)CC4)cc3)c(-c3ccccc3)cn12 [Example 22, 3-ethyl-6-phenyl-7-(4-{[4-(5-pyridin-2-yl-1,2,4-triazol-3-yl)piperidin-1-yl]methyl}phenyl)imidazo[1,2-a]pyrimidine] | 1 to 10 | < 1
14 | c1ccc(-c2cn3ccnc3nc2-c2ccc(CN3CCC(c4n[nH]c(-c5cnccn5)n4)CC3)cc2)cc1 [Example 21, 6-phenyl-7-(4-{[4-(5-pyrazin-2-yl-1,2,4-triazol-3-yl)piperidin-1-yl]methyl}phenyl)imidazo[1,2-a]pyrimidine] | 1 to 10 | > 1
15 | c1ccc(-c2cn3nc(C4CCC4)nc3nc2-c2ccc(CN3CCC(c4n[nH]c(-c5ccccn5)n4)CC3)cc2)cc1 [Example 7, 2-cyclobutyl-6-phenyl-5-(4-{[4-(5-pyridin-2-yl-1,2,4-triazol-3-yl)piperidin-1-yl]methyl}phenyl)[1,2,4]triazolo[1,5-a]pyrimidine] | < 1 | < 1
16 | c1ccc(-c2cn3ncnc3nc2-c2ccc(CN3CCC(c4n[nH]c(-c5ccccn5)n4)CC3)cc2)cc1 [Example 2, 6-phenyl-5-(4-([4-(5-pyridin-2-yl-1,2,4-triazol-3-yl)piperidin-1-yl]methyl}phenyl)[1,2,4]triazolo[1,5-a]pyrimidine] | 1 to 10 | > 1
17 | C=Cc1cnc2nc(-c3ccc(CN4CCC(c5n[nH]c(-c6ccccn6)n5)CC4)cc3)c(-c3ccccc3)cn12 [Example 15, 6-phenyl-7-(4-{[4-(5-pyridin-2-yl-1,2,4-triazol-3-yl)piperidin-1-yl]methyl}phenyl)-3-vinylimidazo[1,2-a]pyrimidine] | 1 to 10 | < 1
18 | c1ccc(-c2cn3nccc3nc2-c2ccc(CN3CCC(c4n[nH]c(-c5ccccn5)n4)CC3)cc2)cc1 [Example 19, 6-phenyl-5-(4-{[4-(5-pyridin-2-yl-1,2,4-triazol-3-yl)piperidin-1-yl]methyl}phenyl)pyrazolo[1,5-a]pyrimidine] | 1 to 10 | < 1
19 | c1ccc(-c2cn3ccnc3nc2-c2ccc(CN3CCC(c4n[nH]c(-c5ncccn5)n4)CC3)cc2)cc1 [Example 18, 6-phenyl-7-(4-{[4-(5-pyrimidin-2-yl-1,2,4-triazol-3-yl)piperidin-1-yl]methyl}phenyl)imidazo[1,2-a]pyrimidine] | 1 to 10 | > 1
